# Columns and labels:
# [1] = system: Echinochloa oryzoides (Ard.) Fritsch.; assay: Preemergence weed control under flooded paddy conditions, ECHORC (Watergrass (Calif.)); type: in vivo; conditions: flooded paddy, rated three to four weeks after treatment; for herbicidal effect rating, ECHORC: meaning of each grade not given here
# Cyperus iria = assay: Preemergence weed control under flooded paddy conditions, CYPIR (Rice Flatsedge); type: in vivo; conditions: flooded paddy, rated three to four weeks after treatment; for herbicidal effect rating, CYPIR: meaning of each grade not given here
# [2] = system: Cyperus serotinus, Rottb.; assay: Preemergence weed control under flooded paddy conditions, CYPSE (Flatsedge); type: in vivo; conditions: rated three to four weeks after treatment; for herbicidal effect rating, CYPSE: meaning of each grade not given here
# [3] = system: Monochoria vaginalis, Presl.; assay: Preemergence weed control under flooded paddy conditions, MOOVA (Monochoria); type: in vivo; conditions: flooded paddy, rated three to four weeks after treatment; for herbicidal effect rating, MOOVA: meaning of each grade not given here
# Sagittaria pygmaea, L. = assay: Preemergence weed control under flooded paddy conditions, SAGPY (Arrowhead (Pygmaea)); type: in vivo; conditions: flooded paddy, rated three to four weeks after treatment; for herbicidal effect rating, SAGPY: meaning of each grade not given here
# [4] = system: Oryza sativa, (L.) Tebonnet; assay: Rice tolerance to post-transplant applications under flooded paddy conditions (Example 187), ORYSAT (Rice, Tebonnet); conditions: rated three to four weeks after treatment; for herbicidal effect rating ORYSAT: meaning of each grade not given here
# [5] = Rate 0.0320 kg/ha, preemergence weeds
# [6] = Rate 0.0620 kg/ha, preemergence weeds
# [7] = Rate 0.1250 kg/ha, preemergence weeds
# [8] = Rate 0.2500 kg/ha, preemergence weeds
# [9] = Rate 0.0320 kg/ha, preemergence
# [10] = Rate 0.0620 kg/ha, preemergence
# [11] = Rate 0.1250 kg/ha, preemergence
# [12] = Rate 0.2500 kg/ha, preemergence
# [13] = Rate 0.5000 kg/ha, preemergence
compound,measurement,setting,value
"CC(C)NC(=O)c1nsc2ccc(-n3c(=O)cc(C(F)(F)F)n(C)c3=O)cc12 [Example 330, 1,2-Benzisothiazole-3-carboxamide, 5-[3,6-dihydro-3-methyl-2,6-dioxo-4-(trifluoromethyl)-1(2H)-pyrimidinyl]-N-isopropyl-]","herbicidal effect rating, ECHORC",[1]; [5],7.0
same,"herbicidal effect rating, ECHORC",[1]; [6],7.0
same,"herbicidal effect rating, ECHORC",[1]; [7],9.0
same,"herbicidal effect rating, ECHORC",[1]; [8],9.0
same,"herbicidal effect rating, CYPIR",Cyperus iria; [5],0.0
same,"herbicidal effect rating, CYPIR",Cyperus iria; [6],0.0
same,"herbicidal effect rating, CYPIR",Cyperus iria; [7],6.0
same,"herbicidal effect rating, CYPIR",Cyperus iria; [8],6.0
same,"herbicidal effect rating, CYPSE",[2]; [5],5.0
same,"herbicidal effect rating, CYPSE",[2]; [6],5.0
same,"herbicidal effect rating, CYPSE",[2]; [7],5.0
same,"herbicidal effect rating, CYPSE",[2]; [8],5.0
same,"herbicidal effect rating, MOOVA",[3]; [5],9.0
same,"herbicidal effect rating, MOOVA",[3]; [6],9.0
same,"herbicidal effect rating, MOOVA",[3]; [7],9.0
same,"herbicidal effect rating, MOOVA",[3]; [8],9.0
same,"herbicidal effect rating, SAGPY","Sagittaria pygmaea, L.; [5]",0.0
same,"herbicidal effect rating, SAGPY","Sagittaria pygmaea, L.; [6]",0.0
same,"herbicidal effect rating, SAGPY","Sagittaria pygmaea, L.; [7]",0.0
same,"herbicidal effect rating, SAGPY","Sagittaria pygmaea, L.; [8]",0.0
same,herbicidal effect rating ORYSAT,[4]; Rate 0.0320 kg/ha,7.0
same,herbicidal effect rating ORYSAT,[4]; Rate 0.0620 kg/ha,7.0
same,herbicidal effect rating ORYSAT,[4]; Rate 0.1250 kg/ha,7.0
same,herbicidal effect rating ORYSAT,[4]; Rate 0.2500 kg/ha,7.0
"Cn1c(C(F)(F)F)cc(=O)n(-c2ccc3snc(-c4ccc(OCC(=O)OC(C)(C)C)cc4)c3c2)c1=O [Example 273, Acetic acid, {p-{5-[3,6-dihydro-3-methyl-2,6-dioxo-4-(trifluoromethyl)-1(2H)-pyrimidinyl]-1,2-benzisothiazol-3-yl}phenoxy}-, tert-butyl ester]",ECHORC herbicidal effect rating,[1]; [9],3.9
same,ECHORC herbicidal effect rating,[1]; [10],5.1
same,ECHORC herbicidal effect rating,[1]; [11],6.0
same,ECHORC herbicidal effect rating,[1]; [12],9.0
same,ECHORC herbicidal effect rating,[1]; [13],9.0
same,CYPIR herbicidal effect rating,Cyperus iria; [9],6.0
same,CYPIR herbicidal effect rating,Cyperus iria; [10],9.0
same,CYPIR herbicidal effect rating,Cyperus iria; [11],9.0
same,CYPIR herbicidal effect rating,Cyperus iria; [12],9.0
same,CYPIR herbicidal effect rating,Cyperus iria; [13],4.0
same,CYPSE herbicidal effect rating,[2]; [9],0.0
same,CYPSE herbicidal effect rating,[2]; [10],0.0
same,CYPSE herbicidal effect rating,[2]; [12],7.0
same,CYPSE herbicidal effect rating,[2]; [13],9.0
same,MOOVA herbicidal effect rating,[3]; [9],9.0
same,MOOVA herbicidal effect rating,[3]; [10],9.0
same,MOOVA herbicidal effect rating,[3]; [11],9.0
same,MOOVA herbicidal effect rating,[3]; [12],9.0
same,MOOVA herbicidal effect rating,[3]; [13],9.0
same,SAGPY herbicidal effect rating,"Sagittaria pygmaea, L.; [9]",0.0
same,SAGPY herbicidal effect rating,"Sagittaria pygmaea, L.; [10]",0.0
same,SAGPY herbicidal effect rating,"Sagittaria pygmaea, L.; [11]",0.0
same,SAGPY herbicidal effect rating,"Sagittaria pygmaea, L.; [12]",6.0
same,SAGPY herbicidal effect rating,"Sagittaria pygmaea, L.; [13]",0.0
same,ORYSAT herbicidal effect rating,[4]; Rate 0.0320 kg/ha,0.0
same,ORYSAT herbicidal effect rating,[4]; Rate 0.0620 kg/ha,2.0
same,ORYSAT herbicidal effect rating,[4]; Rate 0.1250 kg/ha,3.0
same,ORYSAT herbicidal effect rating,[4]; Rate 0.2500 kg/ha,4.0
same,ORYSAT herbicidal effect rating,[4]; Rate 0.5000 kg/ha,3.0
"CN(C(=O)c1nsc2ccc(-n3c(=O)cc(C(F)(F)F)n(C)c3=O)cc12)c1ccc(Cl)cc1 [Example 365, 1,2-Benzisothiazole-3-carboxanilide, 4'-chloro-5-[3,6-dihydro-3-methyl-2,6-dioxo-4-(trifluoromethyl)-1(2H)-pyrimidinyl]-N-methyl-]","herbicidal effect rating, ECHORC",[1]; [9],4.0
same,"herbicidal effect rating, ECHORC",[1]; [10],6.0
same,"herbicidal effect rating, ECHORC",[1]; [11],9.0
same,"herbicidal effect rating, ECHORC",[1]; [12],9.0
same,"herbicidal effect rating, ECHORC",[1]; [13],9.0
same,"herbicidal effect rating, CYPIR",Cyperus iria; [9],4.0
same,"herbicidal effect rating, CYPIR",Cyperus iria; [10],6.0
same,"herbicidal effect rating, CYPIR",Cyperus iria; [11],6.0
same,"herbicidal effect rating, CYPIR",Cyperus iria; [12],9.0
same,"herbicidal effect rating, CYPIR",Cyperus iria; [13],9.0
same,"herbicidal effect rating, CYPSE",[2]; [9],4.0
same,"herbicidal effect rating, CYPSE",[2]; [10],4.0
same,"herbicidal effect rating, CYPSE",[2]; [11],4.0
same,"herbicidal effect rating, CYPSE",[2]; [12],9.0
same,"herbicidal effect rating, CYPSE",[2]; [13],9.0
same,"herbicidal effect rating, MOOVA",[3]; [9],9.0
same,"herbicidal effect rating, MOOVA",[3]; [10],9.0
same,"herbicidal effect rating, MOOVA",[3]; [11],9.0
same,"herbicidal effect rating, MOOVA",[3]; [12],9.0
same,"herbicidal effect rating, MOOVA",[3]; [13],9.0
same,"herbicidal effect rating, SAGPY","Sagittaria pygmaea, L.; [9]",3.0
same,"herbicidal effect rating, SAGPY","Sagittaria pygmaea, L.; [10]",5.0
same,"herbicidal effect rating, SAGPY","Sagittaria pygmaea, L.; [11]",5.0
same,"herbicidal effect rating, SAGPY","Sagittaria pygmaea, L.; [12]",5.0
same,"herbicidal effect rating, SAGPY","Sagittaria pygmaea, L.; [13]",6.0
same,herbicidal effect rating ORYSAT,[4]; Rate 0.0320 kg/ha,3.0
same,herbicidal effect rating ORYSAT,[4]; Rate 0.0620 kg/ha,5.0
same,herbicidal effect rating ORYSAT,[4]; Rate 0.1250 kg/ha,5.0
same,herbicidal effect rating ORYSAT,[4]; Rate 0.2500 kg/ha,5.0
same,herbicidal effect rating ORYSAT,[4]; Rate 0.5000 kg/ha,6.0

# — EP0908457B1, “3-(1,2-benzisothiazol- and isoxazol-5-Y1)-2,4(1H,3H)-pyrimidinedione or thione and 3-(1,2-benzisothiazol- and isoxazol-5-y1)-4(3H)-pyrimidinone or thione herbicidal agents” (BASF AKTIENGESELLSCHAFT, priority 1997, dated 1999)
